Experiments:
Format in all cases: in vivo
[1] = tested on: Echinochloa oryzacola Vasing.; assay: Test Example 1: herbicidal activity, application before weed generation in submerged conditions (symbol A)
Outline: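 0–5 visual score, 3 wk post-application. Submerged pots, alluvial soil, water 4 cm; seeds sown mixed, rice at 2.5 leaves transplanted. Emulsion diluted to predetermined dose, applied to water surface at sowing. 25–30 °C greenhouse.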

transplanted rice plant = assay: Test Example 1: effect on crop, application before weed generation in submerged conditions (symbol a)
Outline: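 Alluvial soil pots flooded to 4 cm water, sown with Echinochloa oryzacola, Scirpus juncoides and Monochoria vaginalis, then transplanted with 2.5 leaf stage rice seedlings; pre-emergence application. Greenhouse 25° C. to 30° C.; scored 0–5 by herbicidal ratio 3 weeks after application.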

[2] = tested on: directly sowed rice plant; assay: Test Example 3: effect on crop by foliage application, Wagner pot (symbol b); conditions: for b (directly sowed rice plant) effect on crop grade: Table 24
Outline: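 Greenhouse culture at 25–30 °C of seeded rice, Cyperus difformis, Leptochloa chinensis and Echinochloa crus-galli var. crus-galli, in alluvial soil held under 0.1–0.5 cm of water in a Wagner pot.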

[3] = tested on: Echinochloa crus-galli var. crus-galli; assay: Test Example 4: herbicidal effect by soil treatment (symbol H)
Outline: (§1)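 Seeds were sown in sterilized diluvial soil, covered with about 1.5 cm of soil, and the soil surface was sprayed with a water-diluted emulsion of the compound at a predetermined rate. Plants grew in a greenhouse at 25° C. to 30° C.; effects were scored visually 3 weeks after application.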

Abutilon theophrasti [4] = assay: Test Example 4: herbicidal effect by soil treatment (symbol M)
Outline: as §1

Chenopodium album = assay: Test Example 4: herbicidal effect by soil treatment (symbol O)
Outline: as §1

Galium spurium = assay: Test Example 4: herbicidal effect by soil treatment (symbol Q)
Outline: as §1

soybean [5] = assay: Test Example 4: effect on crop by soil treatment (symbol d)
Outline: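 Steps: fill box with sterilized diluvial soil; sow seed spot-like; cover with ~1.5 cm soil; grow in greenhouse (25° C. to 30° C.).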

Digitaria ciliaris = assay: Test Example 5: herbicidal effect by foliage application, plastic box (symbol F); conditions: 3 weeks after application
Outline: (§2)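 After sowing into sterilized diluvial soil and growing two weeks under glass at 25° C. to 30° C., seedlings receive a uniform foliar spray of diluted emulsion. Damage is judged visually three weeks on.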

Avena fatua = assay: Test Example 5: herbicidal effect by foliage application, plastic box (symbol I); conditions: 3 weeks after application
Outline: as §2

Abutilon theophrasti [6] = assay: Test Example 5: herbicidal effect by foliage application, plastic box (symbol M); conditions: 3 weeks after application
Outline: as §2

Veronica persica = assay: Test Example 5: herbicidal effect by foliage application, plastic box (symbol R); conditions: 3 weeks after application
Outline: as §2

corn = assay: Test Example 5: effect on crop by foliage application, plastic box (symbol c); conditions: 3 weeks after application
Outline: (§3)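 Plants were raised from seed in a greenhouse (25° C. to 30° C.) after sowing in a plastic box of sterilized diluvial soil.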

soybean [7] = assay: Test Example 5: effect on crop by foliage application, plastic box (symbol d); conditions: 3 weeks after application
Outline: as §3

Apera spica-venti = assay: Test Example 4: herbicidal effect by soil treatment (symbol L)
Outline: as §1

[8] = application herbicide amount 320 g/ha
[9] = application herbicide amount 269 g/ha

Compound: CCC(CC1CC(O)=C(c2c(C)cc(C)cc2OC)C1=O)=NOC (mixture of isomers) [13-003]
- A (Echinochloa oryzacola Vasing.) herbicidal effect grade [1, 8]: 5 (Herbicidal ratio of 90% or more (almost completely withered))
- a (transplanted rice plant) effect on crop grade (transplanted rice plant; [8]): 5 (Herbicidal ratio of 90% or more (almost completely withered))
- b (directly sowed rice plant) effect on crop grade [2, 8]: 5 (Herbicidal ratio of 90% or more (almost completely withered))
- H: Echinochloa crus-galli var. crus-galli, herbicidal effect grade [3, 8]: 5 (Herbicidal ratio of 90% or more (almost completely withered))
- M: Abutilon theophrasti, herbicidal effect grade (Abutilon theophrasti [4]; [8]): 4 (Herbicidal ratio of 70% or higher and lower than 90%)
- O: Chenopodium album, herbicidal effect grade (Chenopodium album; [8]): 0 (Herbicidal ratio of 5% or lower (almost no effect))
- Q: Galium spurium, herbicidal effect grade (Galium spurium; [8]): 0 (Herbicidal ratio of 5% or lower (almost no effect))
- d: soybean, effect on crop grade (soybean [5]; [8]): 0 (Herbicidal ratio of 5% or lower (almost no effect))
- F: Digitaria ciliaris, herbicidal effect grade (Digitaria ciliaris; 320 g/ha): 5 (Herbicidal ratio of 90% or more (almost completely withered))
- I: Avena fatua, herbicidal effect grade (Avena fatua; 320 g/ha): 5 (Herbicidal ratio of 90% or more (almost completely withered))
- M: Abutilon theophrasti, herbicidal effect grade (Abutilon theophrasti [6]; 320 g/ha): 4 (Herbicidal ratio of 70% or higher and lower than 90%)
- R: Veronica persica, herbicidal effect grade (Veronica persica; 320 g/ha): 1 (Herbicidal ratio of 5% or higher and lower than 20%)
- c: corn, effect on crop grade (corn; 320 g/ha): 5 (Herbicidal ratio of 90% or more (almost completely withered))
- d: soybean, effect on crop grade (soybean [7]; 320 g/ha): 3 (Herbicidal ratio of 40% or higher and lower than 70%)

Compound: CON=C(CC1CC(OC(=O)N2CCOCC2)=C(c2c(C)cc(C)cc2OC)C1=O)C1CC1 (mixture of isomers) [13-005]
- A (Echinochloa oryzacola Vasing.) herbicidal effect grade [1, 8]: 5 (Herbicidal ratio of 90% or more (almost completely withered))
- a (transplanted rice plant) effect on crop grade (transplanted rice plant; [8]): 5 (Herbicidal ratio of 90% or more (almost completely withered))
- b (directly sowed rice plant) effect on crop grade [2, 8]: 5 (Herbicidal ratio of 90% or more (almost completely withered))
- H: Echinochloa crus-galli var. crus-galli, herbicidal effect grade [3, 8]: 1 (Herbicidal ratio of 5% or higher and lower than 20%)
- M: Abutilon theophrasti, herbicidal effect grade (Abutilon theophrasti [4]; [8]): 0 (Herbicidal ratio of 5% or lower (almost no effect))
- O: Chenopodium album, herbicidal effect grade (Chenopodium album; [8]): 0 (Herbicidal ratio of 5% or lower (almost no effect))
- Q: Galium spurium, herbicidal effect grade (Galium spurium; [8]): 0 (Herbicidal ratio of 5% or lower (almost no effect))
- d: soybean, effect on crop grade (soybean [5]; [8]): 0 (Herbicidal ratio of 5% or lower (almost no effect))
- F: Digitaria ciliaris, herbicidal effect grade (Digitaria ciliaris; 320 g/ha): 5 (Herbicidal ratio of 90% or more (almost completely withered))
- I: Avena fatua, herbicidal effect grade (Avena fatua; 320 g/ha): 5 (Herbicidal ratio of 90% or more (almost completely withered))
- M: Abutilon theophrasti, herbicidal effect grade (Abutilon theophrasti [6]; 320 g/ha): 0 (Herbicidal ratio of 5% or lower (almost no effect))
- R: Veronica persica, herbicidal effect grade (Veronica persica; 320 g/ha): 0 (Herbicidal ratio of 5% or lower (almost no effect))
- c: corn, effect on crop grade (corn; 320 g/ha): 4 (Herbicidal ratio of 70% or higher and lower than 90%)
- d: soybean, effect on crop grade (soybean [7]; 320 g/ha): 0 (Herbicidal ratio of 5% or lower (almost no effect))

Compound: CC(CC1CC(O)=C(c2c(C)cc(C)cc2C)C1=O)=NOCc1ccc(F)cc1 (stereo not drawn) [1-136]
- Herbicidal effect grade, A: Echinochloa oryzacola Vasing. [1, 8]: 5 (Herbicidal ratio of 90% or more (almost completely withered))
- Effect grade on crop, a: transplanted rice plant (transplanted rice plant; [8]): 5 (Herbicidal ratio of 90% or more (almost completely withered))
- effect on crop b (directly sowed rice plant), grade 0-5 [2, 8]: 5 (Herbicidal ratio of 90% or more (almost completely withered))
- H: Echinochloa crus-galli var. crus-galli, herbicidal effect grade ([3]; 320 g/ha): 5 (Herbicidal ratio of 90% or more (almost completely withered))
- O: Chenopodium album, herbicidal effect grade (Chenopodium album; 320 g/ha): 0 (Herbicidal ratio of 5% or lower (almost no effect))
- Q: Galium spurium, herbicidal effect grade (Galium spurium; 320 g/ha): 0 (Herbicidal ratio of 5% or lower (almost no effect))
- d: soybean, effect grade on crop (soybean [5]; 320 g/ha): 0 (Herbicidal ratio of 5% or lower (almost no effect))
- F: Digitaria ciliaris, herbicidal effect (criteria 0-5) (Digitaria ciliaris; 320 g/ha): 5 (Herbicidal ratio of 90% or more (almost completely withered))
- I: Avena fatua, herbicidal effect (criteria 0-5) (Avena fatua; 320 g/ha): 4 (Herbicidal ratio of 70% or higher and lower than 90%)
- M: Abutilon theophrasti, herbicidal effect (criteria 0-5) (Abutilon theophrasti [6]; 320 g/ha): 3 (Herbicidal ratio of 40% or higher and lower than 70%)
- R: Veronica persica, herbicidal effect (criteria 0-5) (Veronica persica; 320 g/ha): 2 (Herbicidal ratio of 20% or higher and lower than 40%)
- c: corn, effect on crop (criteria 0-5) (corn; 320 g/ha): 3 (Herbicidal ratio of 40% or higher and lower than 70%)
- d: soybean, effect on crop (criteria 0-5) (soybean [7]; 320 g/ha): 1 (Herbicidal ratio of 5% or higher and lower than 20%)

Compound: CC(=O)C(C)C1CC(O)=C(c2c(C)cc(C)cc2C)C1=O (stereo not drawn) [2-005]
- Herbicidal effect grade, A: Echinochloa oryzacola Vasing. [1, 9]: 3 (Herbicidal ratio of 40% or higher and lower than 70%)
- Effect grade on crop, a: transplanted rice plant (transplanted rice plant; [9]): 4 (Herbicidal ratio of 70% or higher and lower than 90%)
- effect on crop b (directly sowed rice plant), grade 0-5 [2, 9]: 5 (Herbicidal ratio of 90% or more (almost completely withered))
- H: Echinochloa crus-galli var. crus-galli, herbicidal effect grade [3, 9]: 5 (Herbicidal ratio of 90% or more (almost completely withered))
- L: Apera spica-venti, herbicidal effect grade (Apera spica-venti; [9]): 1 (Herbicidal ratio of 5% or higher and lower than 20%)
- M: Abutilon theophrasti, herbicidal effect grade (Abutilon theophrasti [4]; [9]): 0 (Herbicidal ratio of 5% or lower (almost no effect))
- Q: Galium spurium, herbicidal effect grade (Galium spurium; [9]): 0 (Herbicidal ratio of 5% or lower (almost no effect))
- d: soybean, effect on crop grade (soybean [5]; [9]): 0 (Herbicidal ratio of 5% or lower (almost no effect))
- F: Digitaria ciliaris, herbicidal effect grade (Digitaria ciliaris; 269 g/ha): 3 (Herbicidal ratio of 40% or higher and lower than 70%)
- I: Avena fatua, herbicidal effect grade (Avena fatua; 269 g/ha): 3 (Herbicidal ratio of 40% or higher and lower than 70%)
- M: Abutilon theophrasti, herbicidal effect grade (Abutilon theophrasti [6]; 269 g/ha): 0 (Herbicidal ratio of 5% or lower (almost no effect))
- R: Veronica persica, herbicidal effect grade (Veronica persica; 269 g/ha): 0 (Herbicidal ratio of 5% or lower (almost no effect))
- c: corn, effect on crop grade (corn; 269 g/ha): 3 (Herbicidal ratio of 40% or higher and lower than 70%)
- d: soybean, effect on crop grade (soybean [7]; 269 g/ha): 0 (Herbicidal ratio of 5% or lower (almost no effect))

Compound: Cc1cc(Br)cc(C)c1C1=C(O)CC(CC(=NOCC(F)(F)F)C2CC2)C1=O (stereo not drawn) [9-009]
- A (Echinochloa oryzacola Vasing.) herbicidal effect grade [1, 8]: 4 (Herbicidal ratio of 70% or higher and lower than 90%)
- a (transplanted rice plant) effect on crop grade (transplanted rice plant; [8]): 5 (Herbicidal ratio of 90% or more (almost completely withered))
- b (directly sowed rice plant) effect on crop grade [2, 8]: 5 (Herbicidal ratio of 90% or more (almost completely withered))
- Herbicidal effect grade, H: Echinochloa crus-galli var. crus-galli [3, 8]: 0 (Herbicidal ratio of 5% or lower (almost no effect))
- Herbicidal effect grade, L: Apera spica-venti (Apera spica-venti; [8]): 1 (Herbicidal ratio of 5% or higher and lower than 20%)
- Herbicidal effect grade, M: Abutilon theophrasti (Abutilon theophrasti [4]; [8]): 0 (Herbicidal ratio of 5% or lower (almost no effect))
- Herbicidal effect grade, Q: Galium spurium (Galium spurium; [8]): 0 (Herbicidal ratio of 5% or lower (almost no effect))
- Effect on crop grade, d: soybean (soybean [5]; [8]): 0 (Herbicidal ratio of 5% or lower (almost no effect))
- F: Digitaria ciliaris, herbicidal effect grade (Digitaria ciliaris; 320 g/ha): 4 (Herbicidal ratio of 70% or higher and lower than 90%)
- I: Avena fatua, herbicidal effect grade (Avena fatua; 320 g/ha): 5 (Herbicidal ratio of 90% or more (almost completely withered))
- M: Abutilon theophrasti, herbicidal effect grade (Abutilon theophrasti [6]; 320 g/ha): 0 (Herbicidal ratio of 5% or lower (almost no effect))
- R: Veronica persica, herbicidal effect grade (Veronica persica; 320 g/ha): 0 (Herbicidal ratio of 5% or lower (almost no effect))
- c: corn, effect on crop grade (corn; 320 g/ha): 3 (Herbicidal ratio of 40% or higher and lower than 70%)
- d: soybean, effect on crop grade (soybean [7]; 320 g/ha): 0 (Herbicidal ratio of 5% or lower (almost no effect))
